± gives the standard deviation of the averaged measurements.
Experiments:
Test in all cases: level (log10 ratio to DMSO vehicle control); higher = higher biomarker level / cell amount than vehicle control
Settings in all cases: in DMSO
[1] = compound: O=C(O)CCC(F)(F)C(F)(F)C(F)(F)F [3:3 Fluorotelomer carboxylic acid]
Procedure: (§1)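 BioMAP Diversity Plus panel of 12 human primary cell co-culture systems (3C, 4H, LPS, SAg, BT, BF4T, BE3C, CASM3C, HDF3CGF, KF3CT, MyoF, Mphg). Compounds were added 1 h before stimulation and left for 24 h (MyoF 48 h; BT 72 h for soluble read-outs or 6 d for IgG). Biomarkers were read by ELISA, cytotoxicity by SRB, PBMC viability and proliferation by Alamar Blue. Each well value was divided by the mean of 8 DMSO control wells on the same plate and log10 transformed; duplicate blinded samples were tested at 4 concentrations.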

Hexafluoroglutaric acid = compound: O=C(O)C(F)(F)C(F)(F)C(F)(F)C(=O)O [Hexafluoroglutaric acid]
Procedure: as §1

[2] = compound: OCC(F)(F)C(F)(F)C(F)(F)C(F)(F)C(F)(F)C(F)F [1H,1H,7H-Dodecafluoro-1-heptanol]
Procedure: as §1

[3] = compound: O=S(=O)(O)C(F)(F)C(F)(F)C(F)(F)C(F)(F)C(F)(F)C(F)(F)C(F)(F)C(F)(F)F [Perfluorooctanesulfonic acid]
Procedure: as §1

[4] = compound: O=C(O)C(F)(F)C(F)(F)C(F)(F)C(F)(F)C(F)(F)C(F)(F)C(F)(F)C(F)(F)C(F)(F)C(F)(F)C(F)(F)C(F)(F)F [Perfluorotridecanoic acid]
Procedure: as §1

[5] = compound: O=C(O)C(F)(F)C(F)(F)C(F)(F)C(F)(F)C(F)(F)C(F)(F)C(F)(F)C(F)(F)Cl [9-Chloro-perfluorononanoic acid]
Procedure: as §1

Test System | level (log10) ([1]; 6700 nM) | level (log10) ([1]; 20000 nM) | level (log10) ([1]; 60000 nM) | level (log10) (Hexafluoroglutaric acid; 6700 nM) | level (log10) (Hexafluoroglutaric acid; 20000 nM) | level (log10) (Hexafluoroglutaric acid; 60000 nM) | level (log10) ([2]; 6700 nM) | level (log10) ([2]; 20000 nM) | level (log10) ([2]; 60000 nM) | level (log10) ([3]; 6700 nM) | level (log10) ([3]; 20000 nM) | level (log10) ([3]; 60000 nM) | level (log10) ([4]; 1500 nM) | level (log10) ([4]; 4400 nM) | level (log10) ([4]; 13000 nM) | level (log10) ([4]; 40000 nM) | level (log10) ([5]; 6700 nM) | level (log10) ([5]; 20000 nM)
KF3CT:CXCL9/MIG | 0 ± 0.0099 | 0.0055 ± 0.015 | 0.005 ± 0.0028 | -0.007 ± 0.0014 | -0.0075 ± 0.0064 | -0.0065 ± 0.0021 | 0.0135 ± 0.012 | 0.0065 ± 0.0035 | 0.0015 ± 0.018 | -0.007 ± 0.0042 | 0.0025 ± 0.0035 | 0.0075 ± 0.012 | -0.002 ± 0.0071 | -0.0015 ± 0.005 | -0.0035 ± 0.0064 | -0.0685 ± 0.079 | 0.0025 ± 0.0092 | -0.0015 ± 0.0021
KF3CT:CXCL10/IP-10 | -0.0015 ± 0.0035 | -0.008 ± 0.0057 | -0.0045 ± 0.0035 | -0.001 | -0.01 ± 0.0014 | 0.005 ± 0.0014 | 0.004 | 0 ± 0.0014 | -0.0055 ± 0.005 | -0.012 ± 0.02 | -0.0065 ± 0.03 | -0.015 ± 0.013 | -0.009 ± 0.0071 | -0.011 ± 0.0028 | -0.015 ± 0.017 | -0.06 ± 0.044 | -0.0235 ± 0.0035 | -0.0715 ± 0.0092
KF3CT:IL-1alpha | -0.0065 ± 0.059 | 0.0035 ± 0.023 | 0.0135 ± 0.019 | -0.021 ± 0.014 | 0.012 ± 0.013 | -0.0395 ± 0.012 | -0.016 ± 0.025 | -0.0195 ± 0.032 | -0.0115 ± 0.043 | 0.0105 ± 0.0064 | -0.0165 ± 0.00071 | -0.016 ± 0.0028 | -0.025 ± 0.0099 | -0.0435 ± 0.0035 | -0.074 ± 0.018 | -0.1075 ± 0.00071 | -0.0295 ± 0.042 | -0.056 ± 0.031
KF3CT:MMP-9 | 0.001 ± 0.0028 | -0.001 ± 0.0042 | 0.003 ± 0.0042 | -0.001 ± 0.023 | 0.015 ± 0.021 | 0.005 ± 0.0099 | 0.0075 ± 0.005 | -0.003 ± 0.011 | 0.011 ± 0.0014 | -0.0195 ± 0.013 | -0.013 | -0.0705 ± 0.015 | 0.0045 ± 0.012 | -0.007 ± 0.0028 | -0.0155 ± 0.013 | -0.0265 ± 0.019 | -0.0345 ± 0.0021 | -0.106 ± 0.0071
KF3CT:PAI-I | -0.009 ± 0.031 | -0.0125 ± 0.0021 | -0.004 ± 0.0071 | -0.004 ± 0.0042 | -0.0005 ± 0.005 | 0.0045 ± 0.0092 | -0.0075 ± 0.0092 | -0.0035 ± 0.011 | 0 ± 0.0042 | -0.0255 ± 0.013 | -0.058 ± 0.02 | -0.135 ± 0.052 | -0.006 ± 0.028 | -0.0155 ± 0.015 | -0.0135 ± 0.023 | -0.052 ± 0.027 | -0.01 ± 0.0057 | -0.101 ± 0.0078
KF3CT:SRB | -0.0085 ± 0.00071 | -0.004 ± 0.0042 | 0.0015 ± 0.018 | -0.0055 ± 0.0021 | -0.011 ± 0.0057 | 0.003 ± 0.018 | -0.0025 ± 0.0064 | -0.001 ± 0.0042 | 0.002 ± 0.0085 | -0.0195 ± 0.0021 | -0.012 ± 0.0042 | -0.012 ± 0.0099 | 0.0015 ± 0.00071 | -0.0055 ± 0.0021 | -0.0095 ± 0.0021 | -0.035 ± 0.0042 | -0.0135 ± 0.0035 | -0.0145 ± 0.012
KF3CT:TIMP-2 | -0.002 ± 0.021 | -0.006 ± 0.0099 | -0.0025 ± 0.016 | -0.026 ± 0.014 | -0.028 ± 0.0042 | -0.013 ± 0.011 | 0.0015 ± 0.005 | 0.0015 ± 0.0021 | 0.0015 ± 0.0064 | -0.01 ± 0.0014 | -0.0085 ± 0.016 | 0.0225 ± 0.025 | 0.0125 ± 0.016 | 0.028 ± 0.013 | 0.0165 ± 0.022 | 0.0295 ± 0.015 | -0.0205 ± 0.0021 | -0.0015 ± 0.0021
KF3CT:uPA | -0.01 ± 0.017 | -0.0165 ± 0.0092 | -0.009 ± 0.0014 | -0.019 ± 0.024 | -0.0055 ± 0.0035 | -0.011 ± 0.011 | 0.001 ± 0.011 | -0.0155 ± 0.013 | 0.0035 ± 0.015 | -0.001 ± 0.0057 | -0.012 ± 0.018 | -0.021 ± 0.0057 | 0.0005 ± 0.018 | -0.003 ± 0.011 | 0.0035 ± 0.015 | -0.0035 ± 0.011 | 0.0095 ± 0.0078 | 0.01
MyoF:CD106/VCAM-1 | -0.0005 ± 0.012 | -0.016 ± 0.0085 | -0.013 ± 0.0085 | -0.0145 ± 0.021 | -0.023 ± 0.0099 | -0.006 ± 0.0014 | -0.014 ± 0.021 | -0.0115 ± 0.0092 | -0.019 ± 0.016 | 0.0055 ± 0.0021 | 0.0085 ± 0.016 | 0.0165 ± 0.023 | -0.0105 ± 0.0078 | 0.01 ± 0.0071 | -0.003 ± 0.0085 | 0.0035 ± 0.033 | -0.008 ± 0.025 | -0.101 ± 0.023
MyoF:CXCL8/IL-8 | -0.016 ± 0.037 | -0.0275 ± 0.05 | 0.0145 ± 0.093 | -0.0085 ± 0.0021 | -0.0225 ± 0.013 | -0.0015 ± 0.021 | -0.034 ± 0.051 | 0 ± 0.1 | 0.0265 ± 0.063 | -0.057 ± 0.0028 | -0.0755 ± 0.013 | -0.025 ± 0.017 | -0.01 ± 0.023 | -0.0295 ± 0.0078 | -0.0275 ± 0.0021 | -0.025 ± 0.0042 | 0.0025 ± 0.015 | -0.06 ± 0.0057
MyoF:Collagen I | -0.0005 ± 0.037 | 0.0095 ± 0.0035 | 0.0255 ± 0.026 | -0.003 ± 0.013 | -0.0005 ± 0.016 | 0.011 ± 0.0014 | 0.0055 ± 0.012 | -0.0175 ± 0.018 | 0.003 ± 0.023 | -0.012 ± 0.018 | -0.0045 ± 0.0092 | 0.015 ± 0.021 | -0.0045 ± 0.019 | -0.0115 ± 0.016 | -0.016 ± 0.025 | -0.213 ± 0.037 | -0.0135 ± 0.005 | -0.29 ± 0.019
MyoF:Collagen III | -0.0125 ± 0.005 | -0.005 ± 0.011 | -0.0145 ± 0.0064 | 0.006 ± 0.0042 | 0.0035 ± 0.005 | 0.0055 ± 0.00071 | -0.0095 ± 0.0035 | -0.012 | -0.015 ± 0.0071 | -0.0265 ± 0.026 | -0.025 ± 0.0071 | -0.0385 ± 0.012 | -0.015 ± 0.025 | -0.0115 ± 0.012 | -0.026 ± 0.02 | -0.044 ± 0.0071 | -0.033 ± 0.027 | -0.498 ± 0.0085
MyoF:Collagen IV | -0.0275 ± 0.042 | -0.029 ± 0.031 | -0.004 ± 0.035 | -0.004 ± 0.013 | 0.002 ± 0.021 | -0.0055 ± 0.0064 | -0.0115 ± 0.015 | -0.0025 ± 0.018 | 0.011 ± 0.025 | 0.0045 ± 0.039 | -0.0005 ± 0.005 | 0.037 ± 0.034 | -0.0095 ± 0.043 | 0.002 ± 0.018 | 0.004 ± 0.04 | 0.064 ± 0.013 | 0.024 ± 0.0071 | 0.264 ± 0.031
MyoF:Decorin | -0.024 ± 0.0028 | -0.0115 ± 0.015 | -0.004 ± 0.024 | -0.0145 ± 0.0078 | -0.0225 ± 0.0064 | -0.031 ± 0.0099 | -0.0105 ± 0.00071 | -0.0005 ± 0.036 | -0.017 ± 0.021 | 0.018 ± 0.0071 | 0.0365 ± 0.013 | 0.054 ± 0.018 | 0.046 ± 0.05 | 0.06 ± 0.035 | 0.047 ± 0.047 | 0.0365 ± 0.039 | 0.012 ± 0.0014 | -0.0045 ± 0.05
MyoF:MMP-1 | -0.0385 ± 0.052 | -0.0305 ± 0.013 | 0.01 ± 0.028 | 0 ± 0.0085 | -0.0115 ± 0.012 | -0.008 ± 0.014 | -0.025 ± 0.035 | -0.029 ± 0.021 | -0.0015 ± 0.012 | -0.031 ± 0.0014 | -0.031 ± 0.013 | 0.038 ± 0.048 | -0.0005 ± 0.021 | 0.018 ± 0.016 | -0.025 ± 0.0099 | 0.014 ± 0.02 | -0.028 ± 0.03 | -0.0585 ± 0.0064
MyoF:PAI-I | -0.0055 ± 0.005 | -0.003 | 0.003 ± 0.0042 | -0.0025 ± 0.021 | -0.0035 ± 0.015 | 0.003 | -0.0045 ± 0.013 | -0.0015 ± 0.011 | 0.007 ± 0.0057 | 0.003 ± 0.017 | -0.0105 ± 0.0064 | -0.0055 ± 0.0092 | 0.013 ± 0.013 | -0.002 | -0.0035 ± 0.00071 | 0.012 ± 0.0085 | -0.0065 ± 0.0078 | -0.0185 ± 0.011

Reference: the supplement of paper PMC10331698
